The target of series [1] is T1, aldehyde oxidases (human liver cytosol) (Homo sapiens, UniProt Q06278).
T1 construct: added to human liver cytosol (1 mg/mL protein content); from tissue; host or cells: human liver cytosol
Type of series: in vitro ADME. As to conditions: human liver cytosol 1 mg/mL, 1 μM compound; for HLC % remaining (1 h incub.): 60 min incubation; for HLC % remaining (1 h incub.) / HLC T½ min: pH 7.4, 37° C.; for IntCl (Intrinsic Clearance): half-life approach. As for the experimental part: The aldehyde oxidases involvement in the metabolism of the test item was determined by comparison of the intrinsic clearance values in the presence and absence of aldehyde oxidases inhibitor hydralazine hydrochloride. The purpose of the study was to evaluate the in-vitro intrinsic clearance, the metabolic stability towards aldehyde oxidases (AO) activity and the metabolism of the test item in human liver cytosol. The intrinsic clearance was determined using the half-life approach, by measuring the substrate disappearance along 60 minutes incubation with human liver cytosol. Incubations were performed at the concentration of 1 μM. […] HPLC-MS/MS was used for the detection of the compound left over during the incubation. For intrinsic clearance determination samples were analyzed by high performance liquid chromatography (HPLC) on-line with mass spectrometry (MS) equipment. For the determination of aldehyde oxidases activity (i.e. positive control) of cytosol, phthalazine was incubated with human liver cytosol in presence and absence of the aldehyde oxidases inhibitor. On the day of the incubation, the compound was dissolved in DMSO at the concentration of 10 mM. Aliquots of this solution were added to the test system to a final concentration of […]. The percentage of DMSO in the final incubates was […]. Aliquots of the test item were added to human liver cytosol (1 mg/mL protein content) in Dulbecco's buffer, pH 7.4 at 37° C., to reach final concentration of 1 μM. Incubations were performed in a 48-well plate, under shaking. At 0, 5, 10, 20, 30 and 60 minutes incubation, 50 μL aliquots of the incubate were sampled, poured in 80 μL of ice-cold acetonitrile and 20 μL of 1 μM warfarin in acetonitrile (injection control) and centrifuged at 2500 rpm for 20 minutes. The supernatant was immediately analysed by LC-MS/MS.
The test item was incubated in parallel, in duplicate, at the concentration of 1 μM in Dulbecco's buffer, pH 7.4 for 60 min at 37° C. in the presence of 10 μM hydralazine hydrochloride (aldehyde oxidases inhibitor).
The chemical stability of the test item was checked in parallel by incubating the test item in single at the concentration of 1 μM in Dulbecco's buffer, pH 7.4 for 60 min at 37° C. (negative control).
The intrinsic clearance (CLint) was calculated using the half-life approach. Half-life and CLint were determined from the concentration (area counts) remaining at the different sampling points using the LC-MS/MS method. By plotting the natural logarithmic area of the compound remaining against the time, the slope was calculated by linear regression analysis and converted into the half-life (t½) and CLint expressed as μL/min/mg protein according to the following formulae: […]

For series [2], the target named is Cdc7 (Homo sapiens, UniProt O00311). The series is described as follows: Cdc7 biochemical assay, ADPGlo assay format. As for the experimental part: The biochemical activity of compounds was determined by incubation with specific enzymes and substrate, followed by quantification of the ADP product. Compounds were 4-fold serially diluted from 10 to 0.0006 uM; in the case of the pre-incubation step, the enzyme is added to the inhibitor solution and the mixture is left to incubate for 30 minutes at room temperature (r.t.). The reaction started with the addition of the substrate and the ATP, when the enzyme was already present in the preincubation step, or substrate, ATP and enzyme when the preincubation step was not present. The concentrations of ATP, substrate and reaction buffer are described above. The assays were run in a robotized format on 384-well plates. […] At the end of the incubation time, an equal volume of ADPGlo Reagent 1 (Promega) was added to stop the reaction and to remove all unreacted ATP. After 60 minutes, an equal volume of ADPGlo Reagent 2 (Promega) was added to convert ADP in ATP and then ATP in light by luciferase reaction.
y=bottom+(top−bottom)/(1+10^((log IC50−x)*slope))
where x is the logarithm of the inhibitor concentration, y is the response; y starts at bottom and goes to top with a sigmoid shape.

The values that follow come from patent publication US20240217969A1, “SUBSTITUTED PYRROLE CARBOXAMIDES, PROCESS FOR THEIR PREPARATION AND THEIR USE AS KINASE INHIBITORS” (priority 2021, published 2024).

T1 sequence (Q06278 whole entry): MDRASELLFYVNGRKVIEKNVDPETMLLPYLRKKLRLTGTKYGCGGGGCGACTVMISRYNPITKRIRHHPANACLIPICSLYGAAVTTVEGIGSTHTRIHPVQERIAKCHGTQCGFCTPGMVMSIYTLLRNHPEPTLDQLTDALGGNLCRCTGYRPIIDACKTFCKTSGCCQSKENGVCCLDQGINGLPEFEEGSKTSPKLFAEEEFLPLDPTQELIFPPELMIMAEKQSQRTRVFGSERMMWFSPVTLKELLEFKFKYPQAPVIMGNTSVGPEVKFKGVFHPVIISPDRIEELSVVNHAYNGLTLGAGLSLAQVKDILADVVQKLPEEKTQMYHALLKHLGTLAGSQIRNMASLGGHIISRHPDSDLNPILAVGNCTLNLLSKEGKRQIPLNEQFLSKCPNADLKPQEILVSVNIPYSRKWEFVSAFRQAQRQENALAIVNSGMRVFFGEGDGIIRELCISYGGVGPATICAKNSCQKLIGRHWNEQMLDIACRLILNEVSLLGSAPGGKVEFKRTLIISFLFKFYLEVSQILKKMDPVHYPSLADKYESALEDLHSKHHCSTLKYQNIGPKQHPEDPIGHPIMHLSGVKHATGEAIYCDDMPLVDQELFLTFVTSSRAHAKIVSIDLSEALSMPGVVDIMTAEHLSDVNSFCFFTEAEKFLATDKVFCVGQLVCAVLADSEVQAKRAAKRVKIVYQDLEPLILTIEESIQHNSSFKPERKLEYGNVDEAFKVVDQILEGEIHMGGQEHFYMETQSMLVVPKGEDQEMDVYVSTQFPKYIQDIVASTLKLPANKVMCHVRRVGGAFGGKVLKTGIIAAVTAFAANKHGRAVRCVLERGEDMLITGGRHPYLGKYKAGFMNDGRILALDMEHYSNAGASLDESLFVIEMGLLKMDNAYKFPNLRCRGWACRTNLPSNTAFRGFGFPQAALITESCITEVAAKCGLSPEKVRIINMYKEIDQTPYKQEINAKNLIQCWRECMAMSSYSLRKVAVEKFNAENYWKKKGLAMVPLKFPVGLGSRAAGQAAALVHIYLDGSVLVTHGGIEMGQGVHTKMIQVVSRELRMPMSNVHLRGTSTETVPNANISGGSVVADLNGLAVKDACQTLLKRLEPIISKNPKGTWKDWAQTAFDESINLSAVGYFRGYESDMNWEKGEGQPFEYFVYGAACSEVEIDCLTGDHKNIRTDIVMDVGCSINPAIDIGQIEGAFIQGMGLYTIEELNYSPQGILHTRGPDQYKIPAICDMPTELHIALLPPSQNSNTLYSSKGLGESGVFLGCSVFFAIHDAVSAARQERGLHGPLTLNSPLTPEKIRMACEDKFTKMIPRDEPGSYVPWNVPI
Cdc7, sequence (O00311 whole entry): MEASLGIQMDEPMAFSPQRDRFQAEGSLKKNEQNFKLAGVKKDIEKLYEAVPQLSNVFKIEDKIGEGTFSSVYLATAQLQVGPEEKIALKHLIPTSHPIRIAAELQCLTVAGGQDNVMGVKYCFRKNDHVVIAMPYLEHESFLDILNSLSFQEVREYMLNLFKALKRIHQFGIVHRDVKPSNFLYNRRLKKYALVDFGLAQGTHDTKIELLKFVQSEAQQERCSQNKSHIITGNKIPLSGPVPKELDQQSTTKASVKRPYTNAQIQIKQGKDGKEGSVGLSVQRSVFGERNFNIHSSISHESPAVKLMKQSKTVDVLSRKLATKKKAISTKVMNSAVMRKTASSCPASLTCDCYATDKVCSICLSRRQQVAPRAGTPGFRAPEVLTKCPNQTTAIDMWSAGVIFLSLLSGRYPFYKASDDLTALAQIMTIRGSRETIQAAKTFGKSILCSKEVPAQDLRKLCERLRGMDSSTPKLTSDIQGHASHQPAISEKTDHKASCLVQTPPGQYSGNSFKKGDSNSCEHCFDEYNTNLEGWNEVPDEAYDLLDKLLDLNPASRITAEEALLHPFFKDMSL
Cdc7, sequence (Q9UBU7 whole entry partner): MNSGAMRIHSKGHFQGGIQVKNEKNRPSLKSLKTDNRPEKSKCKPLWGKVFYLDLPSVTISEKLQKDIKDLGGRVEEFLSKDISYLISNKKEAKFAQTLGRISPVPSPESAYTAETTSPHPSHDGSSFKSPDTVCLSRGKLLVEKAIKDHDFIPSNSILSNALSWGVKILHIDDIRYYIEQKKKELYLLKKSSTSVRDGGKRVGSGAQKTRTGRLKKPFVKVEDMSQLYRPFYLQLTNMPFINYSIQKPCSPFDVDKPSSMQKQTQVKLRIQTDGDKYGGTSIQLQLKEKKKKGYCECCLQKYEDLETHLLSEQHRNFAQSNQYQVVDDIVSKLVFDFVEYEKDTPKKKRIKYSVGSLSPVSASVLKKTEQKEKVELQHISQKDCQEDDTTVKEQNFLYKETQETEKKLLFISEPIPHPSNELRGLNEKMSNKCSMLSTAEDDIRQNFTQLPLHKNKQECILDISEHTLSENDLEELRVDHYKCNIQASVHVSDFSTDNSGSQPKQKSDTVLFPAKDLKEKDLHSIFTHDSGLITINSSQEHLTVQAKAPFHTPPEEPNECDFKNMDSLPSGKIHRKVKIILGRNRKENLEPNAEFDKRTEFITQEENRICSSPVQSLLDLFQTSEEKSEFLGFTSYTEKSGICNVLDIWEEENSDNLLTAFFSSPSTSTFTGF

`Cc1cc(C(F)(F)F)ccc1-c1[nH]c(-c2ccnc3[nH]ccc23)cc1C(N)=O` [comp 11, 2-[2-methyl-4-(trifluoromethyl)phenyl]-5-(1H-pyrrolo[2,3-b]pyridin-4-yl)-1H-pyrrole-3-carboxamide]: in series [1], the “HLC % remaining (1 h incub.)” value is 100%, the “IntCl (Intrinsic Clearance)” value is on record as 2.9 μL/min/mg protein and the “HLC T½ min” value was 3.98 h. Further, it took 7 nM to reach half-maximal inhibition in series [2] (IC50).
Turning to `Cc1ccc(-c2[nH]c(-c3ccnc4[nH]ccc34)cc2C(N)=O)c(Cl)c1` [comp 9, 2-(2-chloro-4-methylphenyl)-5-(1H-pyrrolo[2,3-b]pyridin-4-yl)-1H-pyrrole-3-carboxamide], in series [1], the “HLC % remaining (1 h incub.)” value worked out at 100%, the “IntCl (Intrinsic Clearance)” value is 2.9 μL/min/mg protein and the “HLC T½ min” value worked out at 3.98 h. This compound also returned an IC50 in series [2] of 1 nM.
`NC(=O)c1cc(-c2ccnc3[nH]ccc23)[nH]c1-c1cccc(Cl)c1Cl` [comp 7, 2-(2,3-dichlorophenyl)-5-(1H-pyrrolo[2,3-b]pyridin-4-yl)-1H-pyrrole-3-carboxamide]: in series [1], the “HLC % remaining (1 h incub.)” value is 95%, the “IntCl (Intrinsic Clearance)” value is recorded as 2.9 μL/min/mg protein and the “HLC T½ min” value amounted to 3.98 h. Moreover, in series [2], the IC50 was 1 nM.
For `NC(=O)c1cc(-c2ccnc3[nH]ccc23)[nH]c1-c1cccc(F)c1F` [comp 6, 2-(2,3-difluorophenyl)-5-(1H-pyrrolo[2,3-b]pyridin-4-yl)-1H-pyrrole-3-carboxamide] the same measures were 100%, 2.9 μL/min/mg protein, 3.98 h and 5 nM.
With `NC(=O)c1cc(-c2ccnc3[nH]ccc23)[nH]c1-c1ccc(Cl)cc1F` [comp 2, 2-(4-chloro-2-fluorophenyl)-5-(1H-pyrrolo[2,3-b]pyridin-4-yl)-1H-pyrrole-3-carboxamide], in series [1], the “HLC % remaining (1 h incub.)” value turned out to be 98%, the “IntCl (Intrinsic Clearance)” value is given as 2.9 μL/min/mg protein and the “HLC T½ min” value stood at 3.98 h. The midpoint of inhibition in series [2], the IC50, lay at 3 nM.
In the case of `NC(=O)c1cc(-c2ccnc3[nH]ccc23)[nH]c1-c1ccc(F)cc1F` [comp 4, 2-(2,4-difluorophenyl)-5-(1H-pyrrolo[2,3-b]pyridin-4-yl)-1H-pyrrole-3-carboxamide], in series [1], the “HLC % remaining (1 h incub.)” value stood at 100%, the “IntCl (Intrinsic Clearance)” value was found to be 2.9 μL/min/mg protein and the “HLC T½ min” value was found to be 3.98 h. Moreover, half-maximal inhibition in series [2] (IC50) required 4 nM.
For `NC(=O)c1cc(-c2ccnc3[nH]ccc23)[nH]c1-c1cccc(F)c1Cl` [comp 13, 2-(2-chloro-3-fluorophenyl)-5-(1H-pyrrolo[2,3-b]pyridin-4-yl)-1H-pyrrole-3-carboxamide] the same measures were 100%, 2.9 μL/min/mg protein, 3.98 h and 1 nM.
Turning to `CCOc1cccc(-c2[nH]c(-c3ccnc4[nH]ccc34)cc2C(N)=O)c1F` [comp 20, 2-(3-ethoxy-2-fluorophenyl)-5-(1H-pyrrolo[2,3-b]pyridin-4-yl)-1H-pyrrole-3-carboxamide], half-maximal inhibition in series [2] (IC50) required 5 nM.
Same read-out and setting: then `CCc1c(-c2ccnc3[nH]ccc23)[nH]c(-c2ccc(C)cc2F)c1C(N)=O` [comp 40, 4-ethyl-2-(2-fluoro-4-methylphenyl)-5-(1H-pyrrolo[2,3-b]pyridin-4-yl)-1H-pyrrole-3-carboxamide], with 717 nM.
Consider `Cc1ccc(-c2[nH]c(-c3ccnc4[nH]ccc34)cc2C(=O)NCCN(C)C)c(F)c1` [comp 24, N-[2-(dimethylamino)ethyl]-2-(2-fluoro-4-methylphenyl)-5-(1H-pyrrolo[2,3-b]pyridin-4-yl)-1H-pyrrole-3-carboxamide], for which, in series [2], half-maximal inhibition (IC50) required 741 nM.
The same measure, in the same setting: the result for `Cn1c(-c2ccnc3[nH]ccc23)cc(C(N)=O)c1-c1ccc(Cl)cc1Cl` [compound 56, 2-(2,4-dichlorophenyl)-1-methyl-5-(1H-pyrrolo[2,3-b]pyridin-4-yl)-1H-pyrrole-3-carboxamide] reads 14 nM.
